The values that follow come from US11944622B2 (Annapurna Bio, Inc., priority 2018, dated 2024).

In the assay the target is T1, APJ Receptor (Homo sapiens, UniProt P35414).
T1 sequence (P35414 1-380): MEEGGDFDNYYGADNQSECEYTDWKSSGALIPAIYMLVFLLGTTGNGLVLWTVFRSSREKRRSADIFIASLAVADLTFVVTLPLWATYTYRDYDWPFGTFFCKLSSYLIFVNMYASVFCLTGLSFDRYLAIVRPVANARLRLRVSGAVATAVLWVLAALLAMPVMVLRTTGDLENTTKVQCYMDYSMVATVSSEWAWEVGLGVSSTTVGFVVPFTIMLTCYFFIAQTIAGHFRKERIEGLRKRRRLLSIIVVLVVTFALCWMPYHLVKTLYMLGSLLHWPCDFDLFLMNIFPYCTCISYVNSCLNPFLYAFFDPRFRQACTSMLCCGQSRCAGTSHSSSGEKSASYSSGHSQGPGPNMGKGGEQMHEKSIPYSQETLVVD
As to the kind of experiment: APJ cAMP assay (DiscoverX enzyme fragment complementation; inhibition of forskolin-stimulated cAMP). In kind it is cell-based. To be noted: CHO-K1 cell line stably expressing the APJ Receptor; EC80 forskolin; 30 minutes at 37° C.; read-out: Potency Range (APJ cAMP EC50). Put shortly:
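CHO-K1 cells stably expressing APJ incubated with compound plus EC80 forskolin for 30 min at 37° C. cAMP detected by β-galactosidase enzyme fragment complementation with chemiluminescent read-out; % activity calculated relative to vehicle and maximal controls.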

Structures are written as SMILES. A value given as a limit tells only on which side of the number the result lay.

The term EC50 denotes the midpoint of the concentration-response curve.

As to `CCOc1cccc(-c2nc3nc(F)c(NS(C)(=O)=O)nc3n2-c2c(OC)cccc2OC)n1` [Example 146, N-(1-(2,6-Dimethoxyphenyl)-2-(6-ethoxypyridin-2-yl)-5-fluoro-1H-imidazo[4,5-b]pyrazin-6-yl)methanesulfonamide], the half-maximal effective concentration (EC50) is 1 to 100 nM.
On to `CCOc1cccc(-c2nc3ncc(NS(=O)(=O)N4CCC(O)CC4)nc3n2-c2c(OC)cccc2OC)n1` [Example 42, N-(1-(2,6-dimethoxyphenyl)-2-(6-ethoxypyridin-2-yl)-1H-imidazo[4,5-b]pyrazin-6-yl)-4-hydroxypiperidine-1-sulfonamide], for which the EC50 lay within 1 to 100 nM.
For the molecule `CCOc1cccc(-c2nc3ncc(NS(C)(=O)=O)nc3n2-c2c(OC)ccnc2OC)n1` [Example 68, N-(1-(2,4-dimethoxypyridin-3-yl)-2-(6-ethoxypyridin-2-yl)-1H-imidazo[4,5-b]pyrazin-6-yl)methanesulfonamide], the EC50 was 1 to 100 nM.
On to `CCOc1cccc(-c2nc3nc(Cl)c(NS(=O)(=O)CC4(O)CC4)nc3n2-c2c(OC)cccc2OC)n1` [Example 113, N-(5-Chloro-1-(2,6-dimethoxyphenyl)-2-(6-ethoxypyridin-2-yl)-1H-imidazo[4,5-b]pyrazin-6-yl)-1-(1-hydroxycyclopropyl)methanesulfonamide], for which the EC50 fell in the range of 1 to 100 nM.
Regarding `CCOc1cccc(-c2nc3nc(CCC4CC4)c(NS(C)(=O)=O)nc3n2-c2c(OC)cccc2OC)n1` [Example 66, N-(5-(2-cyclopropylethyl)-1-(2,6-dimethoxyphenyl)-2-(6-ethoxypyridin-2-yl)-1H-imidazo[4,5-b]pyrazin-6-yl)methanesulfonamide], the concentration giving a half-maximal response (EC50) was under 1 nM.
In the case of `CCOc1cccc(-c2nc3ncc(NS(=O)(=O)[C@H]4C[C@@H](O)C4)nc3n2-c2c(OC)cccc2OC)n1` [Example 33, cis-N-(1-(2,6-dimethoxyphenyl)-2-(6-ethoxypyridin-2-yl)-1H-imidazo[4,5-b]pyrazin-6-yl)-3-hydroxycyclobutane-1-sulfonamide], the EC50 lay within 1 to 100 nM.
As for `CCOc1cccc(-c2nc3ncc(NC(=O)Cc4ccccc4)nc3n2-c2c(OC)cccc2OC)n1` [Example 14, N-(1-(2,6-dimethoxyphenyl)-2-(6-ethoxypyridin-2-yl)-1H-imidazo[4,5-b]pyrazin-6-yl)-2-phenylacetamide], the concentration giving a half-maximal response (EC50) was 1 to 100 nM.
As to `CCOCc1nc2ncc(NS(=O)(=O)c3ccccc3)nc2n1-c1c(OC)cccc1OC` [Example 57, N-(1-(2,6-dimethoxyphenyl)-2-(ethoxymethyl)-1H-imidazo[4,5-b]pyrazin-6-yl)benzenesulfonamide], the EC50 lay within 100 to 10000 nM.
The figure for `CCOc1cccc(-c2nc3ncc(N(C)S(C)(=O)=O)nc3n2-c2c(OC)cccc2OC)n1` [Example 32, N-(1-(2,6-dimethoxyphenyl)-2-(6-ethoxypyridin-2-yl)-1H-imidazo[4,5-b]pyrazin-6-yl)-N-methylmethanesulfonamide] is 100 to 10000 nM.
Take `CCOc1cccc(-c2nc3nc(CC4CC4)c(NS(C)(=O)=O)nc3n2-c2c(OC)cccc2OC)n1` [Example 65, N-(5-(cyclopropylmethyl)-1-(2,6-dimethoxyphenyl)-2-(6-ethoxypyridin-2-yl)-1H-imidazo[4,5-b]pyrazin-6-yl)methanesulfonamide]: the EC50 is under 1 nM.
As for `CCOc1cccc(-c2nc3nccnc3n2-c2c(OC)cccc2OC)n1` [Example 18, 1-(2,6-dimethoxyphenyl)-2-(6-ethoxypyridin-2-yl)-1H-imidazo[4,5-b]pyrazine], the EC50 fell in the range of 100 to 10000 nM.
For the molecule `CCOc1cccc(-c2nc3ncc(NS(=O)(=O)Cc4ncc(F)cn4)nc3n2-c2c(OC)cccc2OC)n1` [Example 79, N-(1-(2,6-dimethoxyphenyl)-2-(6-ethoxypyridin-2-yl)-1H-imidazo[4,5-b]pyrazin-6-yl)-1-(5-fluoropyrimidin-2-yl)methanesulfonamide], the EC50 is under 1 nM.
Consider `CCOc1cccc(-c2nc3ncc(NS(=O)(=O)Cc4cccnc4)nc3n2-c2c(OC)cccc2OC)n1` [Example 26, N-(1-(2,6-dimethoxyphenyl)-2-(6-ethoxypyridin-2-yl)-1H-imidazo[4,5-b]pyrazin-6-yl)-1-(pyridin-3-yl)methanesulfonamide], for which the EC50 fell in the range of 1 to 100 nM.
For `CCOc1cccc(-c2nc3nc(NS(=O)(=O)CC4(O)CNC4)cnc3n2-c2c(OC)cccc2OC)n1` [Example 93, N-(1-(2,6-Dimethoxyphenyl)-2-(6-ethoxypyridin-2-yl)-1H-imidazo[4,5-b]pyrazin-5-yl)-1-(3-hydroxyazetidin-3-yl)methanesulfonamide], the EC50 is under 1 nM.
Take `CCOc1cccc(-c2nc3nc(COC(F)F)c(NS(C)(=O)=O)nc3n2-c2c(OC)cccc2OC)n1` [Example 141, N-(5-((Difluoromethoxy)methyl)-1-(2,6-dimethoxyphenyl)-2-(6-ethoxypyridin-2-yl)-1H-imidazo[4,5-b]pyrazin-6-yl)methanesulfonamide]: the EC50 lay in the range of 1 to 100 nM.
Take `CCOc1cccc(-c2nc3ncc(NS(=O)(=O)c4ccncc4)nc3n2-c2c(OC)cccc2OC)n1` [Example 25, N-(1-(2,6-dimethoxyphenyl)-2-(6-ethoxypyridin-2-yl)-1H-imidazo[4,5-b]pyrazin-6-yl)pyridine-4-sulfonamide]: the EC50 fell in the range of 1 to 100 nM.
Consider `CCOc1cccc(-c2nc3ncc(C(=O)NCc4ccccc4)nc3n2-c2c(OC)cccc2OC)n1` [Example 8, N-Benzyl-1-(2,6-dimethoxyphenyl)-2-(6-ethoxypyridin-2-yl)-1H-imidazo[4,5-b]pyrazine-6-carboxamide], for which the EC50 was 100 to 10000 nM.
Turning to `CCOc1cccc(-c2nc3nnc(NS(=O)(=O)Cc4ccc(C)cn4)cc3n2-c2c(OC)cccc2OC)n1` [Example 124, N-(7-(2,6-Dimethoxyphenyl)-8-(6-ethoxypyridin-2-yl)-7H-imidazo[4,5-c]pyridazinyl)-1-(5-methylpyridin-2-yl)methanesulfonamide], the EC50 was under 1 nM.
`CCOc1cccc(-c2nc3nnc(NS(=O)(=O)Cc4ccc(F)cn4)cc3n2-c2c(OC)cccc2OC)n1` [Example 125, N-(7-(2,6-Dimethoxyphenyl)-8-(6-ethoxypyridin-2-yl)-7H-imidazo[4,5-c]pyridazinyl)-1-(5-fluoropyridin-2-yl)methanesulfonamide]: the EC50 was under 1 nM.
Regarding `CC#CCS(=O)(=O)Nc1nc2c(nc1Cl)nc(-c1cccc(OCC)n1)n2-c1c(OC)cccc1OC` [Example 110, N-(5-Chloro-1-(2,6-dimethoxyphenyl)-2-(6-ethoxypyridin-2-yl)-1H-imidazo[4,5-b]pyrazin-6-yl)but-2-yne-1-sulfonamide], the EC50 was under 1 nM.
`CCOc1cccc(-c2nc3ncc(NC)nc3n2-c2c(OC)cccc2OC)n1` [Example 9, 1-(2,6-dimethoxyphenyl)-2-(6-ethoxypyridin-2-yl)-N-methyl-1H-imidazo[4,5-b]pyrazin-6-amine]: the EC50 was in the range of 1 to 100 nM.
With `CCOc1cccc(-c2cc3ncc(NS(C)(=O)=O)nc3n2-c2c(OC)cccc2OC)n1` [Example 19, N-(5-(2,6-dimethoxyphenyl)-6-(6-ethoxypyridin-2-yl)-5H-pyrrolo[2,3-b]pyrazin-3-yl)methanesulfonamide], the concentration for a half-maximal effect (EC50) is 100 to 10000 nM.
Consider `CCOc1cccc(-c2nc3ncc(C#Cc4ccccc4)nc3n2-c2c(OC)cccc2OC)n1` [Example 6, 1-(2,6-dimethoxyphenyl)-2-(6-ethoxypyridin-2-yl)-6-(phenylethynyl)-1H-imidazo[4,5-b]pyrazine], for which the EC50 was in the range of 100 to 10000 nM.
The same measure for `CCOc1cccc(-c2nc3ccc(NS(C)(=O)=O)nc3n2-c2c(OC)cccc2OC)n1` [Example 63, N-(3-(2,6-dimethoxyphenyl)-2-(6-ethoxypyridin-2-yl)-3H-imidazo[4,5-b]pyridin-5-yl)methanesulfonamide]: 1 to 100 nM; for `CCOc1cccc(-c2nc3nc(Cl)c(NS(=O)(=O)Cc4ncccc4F)nc3n2-c2c(OC)cccc2OC)n1` [Example 94, N-(5-Chloro-1-(2,6-dimethoxyphenyl)-2-(6-ethoxypyridin-2-yl)-1H-imidazo[4,5-b]pyrazin-6-yl)-1-(3-fluoropyridin-2-yl)methanesulfonamide]: 1 to 100 nM; for `CCOc1cccc(-c2nc3nnc(NS(=O)(=O)Cc4ccc(Cl)cn4)cc3n2-c2c(OC)cccc2OC)n1` [Example 123, 1-(5-Chloropyridin-2-yl)-N-(7-(2,6-dimethoxyphenyl)-8-(6-ethoxypyridin-2-yl)-7H-imidazo[4,5-c]pyridazinyl)methanesulfonamide]: under 1 nM.
For `COc1cccc(-c2nc3ncc(NS(C)(=O)=O)nc3n2-c2c(OC)cccc2OC)n1` [Example 51, N-(1-(2,6-dimethoxyphenyl)-2-(6-methoxypyridin-2-yl)-1H-imidazo[4,5-b]pyrazin-6-yl)methanesulfonamide], the half-maximal effective concentration (EC50) fell in the range of 1 to 100 nM.
In the case of `CCOc1cccc(-c2nc3nc(Cl)c(NS(C)(=O)=O)nc3n2-c2c(OC)cncc2OC)n1` [Example 117, N-(5-Chloro-1-(3,5-dimethoxypyridin-4-yl)-2-(6-ethoxypyridin-2-yl)-1H-imidazo[4,5-b]pyrazin-6-yl)methanesulfonamide], the EC50 was in the range of 1 to 100 nM.
As to `CCOc1cccc(-c2nc3ncc(NS(=O)(=O)Cc4ccc(C)cn4)nc3n2-c2c(OC)cccc2OC)n1` [Example 83, N-(1-(2,6-Dimethoxyphenyl)-2-(6-ethoxypyridin-2-yl)-1H-imidazo[4,5-b]pyrazin-6-yl)-1-(5-methylpyridin-2-yl)methanesulfonamide], the EC50 is under 1 nM.
